ChEMBL document CHEMBL1201862, “PubChem BioAssay data set” (2004)
The source made the active and inactive calls.

Tests used:
[1] = P. falciparum Dd2 growth inhibitors, dose response, SYBR Green, cherry-picked samples (AID 1159567); type: functional, cell-based
[2] = A2780 cell killing – plate reader, dry powder samples, cytotoxicity control, dose response (AID 743046); type: functional, cell-based
[3] = target: T1, Nuclear receptor subfamily 0 group B member 1 (Homo sapiens, UniProt P51843); assay: Luminescence-based cell-based high throughput dose response assay for inhibitors of the orphan nuclear receptor subfamily 0, group B, member 1 (DAX1; NR0B1). [Related pubchem assays (depositor defined):AID504766, AID504790]; type: functional
T1 sequence (P51843 whole entry): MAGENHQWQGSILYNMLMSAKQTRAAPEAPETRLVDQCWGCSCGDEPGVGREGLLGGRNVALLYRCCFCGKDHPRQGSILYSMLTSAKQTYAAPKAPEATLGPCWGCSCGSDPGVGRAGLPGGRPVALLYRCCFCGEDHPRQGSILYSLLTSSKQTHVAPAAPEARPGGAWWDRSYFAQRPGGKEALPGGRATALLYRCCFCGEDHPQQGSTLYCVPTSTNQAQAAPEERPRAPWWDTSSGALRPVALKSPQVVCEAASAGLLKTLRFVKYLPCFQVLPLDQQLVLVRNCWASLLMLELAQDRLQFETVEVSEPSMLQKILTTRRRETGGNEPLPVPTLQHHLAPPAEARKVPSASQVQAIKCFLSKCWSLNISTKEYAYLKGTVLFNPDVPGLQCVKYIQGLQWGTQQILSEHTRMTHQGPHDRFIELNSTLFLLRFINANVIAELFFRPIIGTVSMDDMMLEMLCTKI

HEK293 = assay: cells; type: functional, cell-based; conditions: Homo sapiens
[4] = viability of HCT116 lacking mutant beta-catenin – cell-based, human colon tumor, dose response (AID 1045); type: functional;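 note: HCT116 colon tumor cells with beta catenin knocked out; cells exposed to compound for 60 hours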
[5] = viability of PTEN-deleted HCT116 cells – cell-based, HCT116 PTEN knockout, dose response (AID 1047); type: functional;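 note: HCT116 colon tumor cells with PTEN knocked out; cells exposed to compound for 60 hours before readout; potency for loss of cell viability measured by luminescence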
[6] = target: T2, Hepatocyte nuclear factor 4-alpha (Homo sapiens, UniProt P41235); type: functional, cell-based;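 note: biochemical luminescence-based dose-response counterscreen measuring inhibition of HNF4 dimerization, run alongside a screen for blockers of ABHD5–perilipin-5 interaction; split luciferase complementation of HNF4 fusion proteins in cell lysate measuring dimerization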
T2 sequence (P41235 whole entry): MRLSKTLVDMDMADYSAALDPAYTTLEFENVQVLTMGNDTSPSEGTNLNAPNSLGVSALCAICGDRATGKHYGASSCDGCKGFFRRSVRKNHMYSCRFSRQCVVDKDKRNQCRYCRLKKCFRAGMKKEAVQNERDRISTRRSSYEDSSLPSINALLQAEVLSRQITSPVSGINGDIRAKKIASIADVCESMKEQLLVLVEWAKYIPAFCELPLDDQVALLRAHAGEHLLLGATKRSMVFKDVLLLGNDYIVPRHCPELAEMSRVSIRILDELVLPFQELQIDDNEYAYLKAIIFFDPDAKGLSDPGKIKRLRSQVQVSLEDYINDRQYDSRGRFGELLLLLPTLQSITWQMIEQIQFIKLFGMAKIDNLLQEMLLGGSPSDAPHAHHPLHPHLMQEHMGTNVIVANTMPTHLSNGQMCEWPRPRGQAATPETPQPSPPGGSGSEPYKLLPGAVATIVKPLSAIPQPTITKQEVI

[7] = target: T3, Rac GTPase-activating protein 1 (Homo sapiens, UniProt Q9H0H5); assay: blockers of MgcRacGAP-driven Rac1 GTP hydrolysis – biochemical, ADP Hunter fluorescence, primary and confirmatory, confirmation (AID 624330); type: functional
T3 sequence (Q9H0H5 whole entry): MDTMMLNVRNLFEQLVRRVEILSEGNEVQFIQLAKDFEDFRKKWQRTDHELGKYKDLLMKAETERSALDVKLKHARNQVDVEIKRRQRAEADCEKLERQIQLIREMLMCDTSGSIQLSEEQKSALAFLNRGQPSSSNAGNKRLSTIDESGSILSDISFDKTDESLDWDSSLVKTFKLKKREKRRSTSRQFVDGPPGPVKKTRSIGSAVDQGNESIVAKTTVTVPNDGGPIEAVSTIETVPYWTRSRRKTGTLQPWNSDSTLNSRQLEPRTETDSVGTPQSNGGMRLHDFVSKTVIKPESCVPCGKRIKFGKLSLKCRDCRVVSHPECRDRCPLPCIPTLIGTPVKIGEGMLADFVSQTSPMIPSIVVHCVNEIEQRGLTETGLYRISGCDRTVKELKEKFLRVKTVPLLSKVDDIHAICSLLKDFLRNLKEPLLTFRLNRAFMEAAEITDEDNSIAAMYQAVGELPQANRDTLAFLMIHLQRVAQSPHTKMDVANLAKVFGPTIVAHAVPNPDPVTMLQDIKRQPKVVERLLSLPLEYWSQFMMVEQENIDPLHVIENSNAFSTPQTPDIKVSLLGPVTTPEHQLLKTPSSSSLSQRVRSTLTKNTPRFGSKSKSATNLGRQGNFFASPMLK

[8] = target: T4, Trace amine-associated receptor 1 (Homo sapiens, UniProt Q96RJ0); assay: Counterscreen for agonists of the human trace amine associated receptor 1 (hTAAR1): Fluorescence-based cell-based high throughput dose response assay to identify hTAAR1 agonist that also desensitize TAAR1 receptor response.; type: functional
T4 sequence (Q96RJ0 whole entry): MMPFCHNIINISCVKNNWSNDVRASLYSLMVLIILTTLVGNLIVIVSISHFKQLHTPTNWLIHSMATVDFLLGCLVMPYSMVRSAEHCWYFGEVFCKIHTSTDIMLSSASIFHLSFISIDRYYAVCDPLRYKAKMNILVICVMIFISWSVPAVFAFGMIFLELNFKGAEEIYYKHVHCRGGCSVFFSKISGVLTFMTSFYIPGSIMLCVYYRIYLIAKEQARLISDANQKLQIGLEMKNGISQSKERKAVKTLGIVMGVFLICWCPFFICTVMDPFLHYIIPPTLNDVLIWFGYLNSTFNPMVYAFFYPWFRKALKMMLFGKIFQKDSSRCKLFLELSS

[9] = reduction of Shn3 3'UTR-driven luciferase in osteoblasts – cell-based, Clone20 osteoblasts, firefly luciferase, cherry-picked, dose response (AID 624132); type: functional;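 note: firefly luciferase luminescence from reporter carrying the Shn3 3'UTR in osteoblasts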
[10] = target: T5, Ubiquitin-conjugating enzyme E2 N (Homo sapiens, UniProt P61088); type: functional;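 note: Dose-response confirmation in a TR-FRET assay detecting UBC13-driven polyubiquitin chain formation, inhibition measured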
T5 sequence (P61088 whole entry): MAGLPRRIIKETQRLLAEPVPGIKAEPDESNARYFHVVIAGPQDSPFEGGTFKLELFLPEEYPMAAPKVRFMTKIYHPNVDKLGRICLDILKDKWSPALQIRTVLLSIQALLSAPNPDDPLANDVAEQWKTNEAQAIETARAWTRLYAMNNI

INS1 = assay: INS-1E survival protection against cytokine death – cell-based, luminescence, retest, dose response (AID 449756); type: functional; conditions: Rattus norvegicus;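 note: cell death triggered by IL-1 beta plus TNF-alpha plus IFN-gamma mixture; protective hits raise ATP signal compared with cytokine alone wells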
[11] = target: T4, Trace amine-associated receptor 1; assay: Fluorescence-based cell-based high throughput dose response assay to identify agonists of the human trace amine associated receptor 1 (TAAR1).; type: functional
cells [12] = type: functional, cell-based
[13] = loss of viability in HepG2 cells – cell-based, CellTiter-Glo, cherry-picked, cytotoxicity control for Shn3 inhibitor project, dose response (AID 624134); type: functional
[14] = non-specific 3'UTR reporter inhibition in Clone20-Shn3RL – cell-based, Renilla luciferase, cherry-picked, counter-screen for Shn3 inhibitor project, dose response (AID 624133); type: functional
cells [15] = type: functional, cell-based; remark: listed apart in the source
Genome polyprotein = Genome polyprotein (dengue virus type 2, UniProt P29990); assay: flavivirus cap methylation enzyme inhibition – biochemical, confirmation dose response, primary screen (AID 588689); type: functional
BJ [16] = assay: cells; type: functional, cell-based; conditions: Homo sapiens
BJ [17] = assay: BJ-TERT fibroblast viability loss – cell-based, RAS-independent, luminescence, dose response (AID 1933); type: functional; conditions: Homo sapiens
BJ [18] = assay: BJ-TERT-LT-ST fibroblast viability loss – cell-based, RAS-independent, luminescence, dose response (AID 1935); type: functional; conditions: Homo sapiens;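 note: BJ fibroblasts immortalized with TERT plus LT and ST oncogenes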
[19] = DRD fibroblast viability loss – cell-based, non-viral oncogenic, luminescence, dose response (AID 1934); type: functional; conditions: Homo sapiens
[20] = blockers of HIV-1 envelope-mediated cell-cell fusion – cherry-pick, dose response (AID 652057); type: functional, cell-based
[21] = blockers of HIV-1 ZM109 envelope-driven cell-cell fusion – HeLa effector, CEM target cells, luciferase, cherry-pick, dose response (AID 652058); type: functional, cell-based;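 note: luciferase signal from HIV-1 Env mediated cell-cell fusion of effector and target cells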
[22] = off-target signal loss in HeLa-CEM21 co-culture – HeLa F-luc CTL cells, cherry-picked, counter-screen for HIV-1 Env fusion inhibitor project, dose response (AID 652040); type: functional, cell-based;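 note: potency for signal decrease marking cytotoxic or nonspecific inhibition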
[23] = luciferase reporter signal suppression in cells – H4 neuroglioma cells, luminescence, dose response (AID 1990); type: functional, cell-based
[24] = alpha-synuclein stem-loop luciferase translation blockers – H4 neuroglioma cells, luminescence, confirmation (AID 1988); type: functional, cell-based
[25] = Luminescence Cell-Based Dose Response HTS to Identify Inhibitors of 5'UTR Stem-Loop Driven Prion Protein mRNA Translation in H4 Neuroglioblastoma Cells. [Related pubchem assays: 1827 (Project Summary), 1813 (Primary HTS)]; type: functional
[26] = HIV-1 AD8 envelope cell-cell fusion blockers – cherry-pick, dose response (AID 652062); type: functional, cell-based;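 note: luciferase signal from cell-cell fusion driven by HIV-1 clade B AD8 Env; potency is for inhibitors of fusion seen as a drop in luminescence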
[27] = Luminescence Cell-Based Dose Retest to Confirm Inhibitors of Cancer Stem Cells. [Related pubchem assays (depositor defined):AID2717, AID2721]; type: functional; conditions: Homo sapiens
[28] = HIV-1 Vif–A3G interaction blockers – biochemical, TR-FRET, GST-Vif 1-94, biotin-A3G peptide, dose response retest, primary screen (AID 1117319); type: functional;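 note: TR-FRET signal of purified GST-Vif binding a biotinylated A3G peptide; inhibitors lower the FRET signal by blocking Vif and A3G binding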
[29] = viability loss in Vero cells – cytotoxicity control for Vif-APOBEC3G degradation inhibitor project, dose response (AID 1117358); type: functional; conditions: Vero
HeLa = assay: ATP-based viability loss in HeLa cells – cell-based, CellTiter-Glo luminescence, cherry-pick samples, cytotoxicity control for MITF activator project, dose response (AID 540259); type: functional; conditions: Homo sapiens
Paired box protein Pax-8 = Paired box protein Pax-8 (Homo sapiens, UniProt Q06710); assay: PAX8 transcriptional activity inhibition in RMG-I – RMG-I cells, luciferase, cherry-pick, dose response (AID 687027); type: functional, cell-based;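 note: luciferase reporter driven by Pax8 target thyroperoxidase promoter measured by SteadyGlo luminescence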
[30] = OVCAR8 cell viability loss – plate reader, dry powder samples, PAX8 project, dose response (AID 743197); type: functional, cell-based; conditions: OVCAR-8

Paired box protein Pax-8, sequence (Q06710 whole entry): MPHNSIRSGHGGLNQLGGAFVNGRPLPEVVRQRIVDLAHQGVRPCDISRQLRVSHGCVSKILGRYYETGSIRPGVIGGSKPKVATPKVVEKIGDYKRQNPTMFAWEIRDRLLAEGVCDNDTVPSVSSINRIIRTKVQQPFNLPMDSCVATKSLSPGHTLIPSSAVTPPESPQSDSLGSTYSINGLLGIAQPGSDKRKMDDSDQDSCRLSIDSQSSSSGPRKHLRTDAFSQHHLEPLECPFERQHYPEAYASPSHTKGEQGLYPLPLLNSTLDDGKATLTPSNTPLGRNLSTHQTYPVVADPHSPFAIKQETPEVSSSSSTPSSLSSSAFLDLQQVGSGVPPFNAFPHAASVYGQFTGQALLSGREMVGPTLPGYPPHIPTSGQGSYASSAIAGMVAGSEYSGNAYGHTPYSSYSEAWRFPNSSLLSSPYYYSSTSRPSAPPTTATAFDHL
Genome polyprotein, sequence (P29990 2492-3391 limits assumed): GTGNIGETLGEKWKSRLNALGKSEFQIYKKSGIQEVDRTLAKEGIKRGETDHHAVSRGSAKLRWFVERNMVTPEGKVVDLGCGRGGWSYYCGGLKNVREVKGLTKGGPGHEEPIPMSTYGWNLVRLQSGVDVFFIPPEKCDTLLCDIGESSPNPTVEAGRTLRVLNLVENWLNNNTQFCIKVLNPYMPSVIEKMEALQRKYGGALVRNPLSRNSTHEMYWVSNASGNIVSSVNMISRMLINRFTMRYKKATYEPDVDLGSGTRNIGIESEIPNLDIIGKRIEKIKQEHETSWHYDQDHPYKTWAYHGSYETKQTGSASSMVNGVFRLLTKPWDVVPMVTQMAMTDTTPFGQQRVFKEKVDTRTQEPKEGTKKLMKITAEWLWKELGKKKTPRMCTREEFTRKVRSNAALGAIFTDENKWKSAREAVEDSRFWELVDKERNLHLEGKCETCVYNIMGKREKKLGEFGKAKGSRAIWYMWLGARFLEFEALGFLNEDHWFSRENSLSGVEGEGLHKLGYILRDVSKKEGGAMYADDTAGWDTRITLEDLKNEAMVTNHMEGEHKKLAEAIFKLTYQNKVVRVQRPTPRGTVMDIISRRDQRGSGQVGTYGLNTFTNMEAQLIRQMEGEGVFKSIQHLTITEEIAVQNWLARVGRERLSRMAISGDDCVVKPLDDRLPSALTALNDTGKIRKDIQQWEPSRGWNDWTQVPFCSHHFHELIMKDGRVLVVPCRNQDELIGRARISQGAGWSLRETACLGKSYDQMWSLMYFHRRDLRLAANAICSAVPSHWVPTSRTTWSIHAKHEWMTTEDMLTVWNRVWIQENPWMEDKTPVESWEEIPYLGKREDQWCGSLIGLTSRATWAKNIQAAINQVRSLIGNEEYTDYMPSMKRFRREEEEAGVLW

CO[C@@H]1CN(C)C(=O)c2cc(NC(=O)c3nc4ccccc4s3)ccc2OC[C@H](C)NC[C@H]1C
AC50 [1]: 10 µM (active)
AC50 [2]: 0.437 µM (active)

CCOC(=O)CSc1nc2cc3c(cc2cc1C#N)OCCO3
IC50 [3]: > 67.5 µM (inactive)
IC50 (HEK293): > 67.5 µM (inactive)

Cn1nc(-c2ccc(Cl)cc2)c2cc(C(=O)NCCN3CCOCC3)sc21
IC50 [3]: > 67.5 µM (inactive)
EC50 [4]: 17 µM (active)
EC50 [5]: 22.4 µM (active)
IC50 (HEK293): > 67.5 µM (inactive)

O=C(/C(=C/c1ccccc1)n1cncn1)c1ccc(Cl)cc1Cl
IC50 [6]: 3.22 µM (active)
IC50 [7]: 150 µM (active)

COc1ccc(Nc2nc(N3CCCC3)c3ccccc3n2)cc1
IC50 [8]: 7.19 µM (active)
AC50 [9]: 3.67 µM (active)
IC50 [10]: > 20 µM (inactive)
AC50 (INS1): 3.07 µM (active)
EC50 [11]: > 3.32 µM (active)
EC50 (cells [12]): > 29.9 µM (inactive)
AC50 [13]: 8.46 µM (active)
AC50 [14]: 5.37 µM (active)
IC50 (cells [15]): 19.7 µM (inactive)

O=C(O)c1ccccc1C(=O)c1ccc(Sc2ccc(Cl)cc2)c([N+](=O)[O-])c1
IC50 (Genome polyprotein): 35.1 µM (active)
IC50 [3]: > 67.5 µM (inactive)
EC50 (BJ [16]): > 150 µM (not active)
EC50 (BJ [17]): > 150 µM (not active)
EC50 (BJ [18]): > 150 µM (not active)
EC50 [19]: > 150 µM (not active)
IC50 (HEK293): > 67.5 µM (inactive)

COc1ncnc2c1ncn2CCCNCC(C)c1ccccc1 (configuration not stated)
IC50 [8]: 12.8 µM (inactive)
EC50 [11]: 3.84 µM (active)
EC50 (cells [12]): > 29.9 µM (inactive)
IC50 (cells [15]): > 29.9 µM (inactive)

O=C(NCc1ccco1)c1ccc(Cn2c(=O)c3ccccc3n(Cc3cccc(F)c3)c2=O)cc1
AC50 [20]: 2.17 µM (active)
AC50 [21]: 5.5 µM (active)
AC50 [22]: 3.52 µM (active)
EC50 [23]: 15.1 µM (active)
EC50 [24]: 41.4 µM (active)
EC50 [25]: > 120 µM (not active)

O=C(N[C@H](C(=O)N1CCC[C@H]1C(=O)NCCc1ccccc1Cl)C1CCCCC1)C1CC1
IC50 [8]: 8.99 µM (active)
EC50 [11]: 12.1 µM (inactive)
EC50 (cells [12]): > 29.9 µM (inactive)
IC50 (cells [15]): > 29.9 µM (inactive)

CC(C)(C)NC(=O)C(c1ccncc1)n1c(=O)c(-c2ccco2)nc2ccccc21 (configuration not stated)
IC50 [6]: 8.03 µM (active)

O=C(CC(O)CCc1ccccc1)c1ccc(O)cc1 (configuration not stated)
IC50 [3]: > 67.5 µM (inactive)
IC50 (HEK293): > 67.5 µM (inactive)

COc1cc(OCC(=O)NC(C)C)cc2c1C(=O)O[C@@H](C)CCCC(=O)CCCCC2
AC50 [20]: 6.38 µM (active)
AC50 [21]: 6.68 µM (active)
AC50 [26]: 26.4 µM (active)
AC50 [22]: 10.5 µM (active)

O=c1c(-c2ccco2)nc2ccccc2n1C(CCc1ccccc1)c1nc2ccccc2[nH]1 (configuration not stated)
IC50 [6]: 2.54 µM (active)

Cn1nc(-c2ccc(Cl)cc2)c2cc(C(=O)NCCCN3CCOCC3)sc21
AC50 [27]: 2.03 µM (active)
IC50 [28]: > 100 µM (active)
CC50 [29]: > 40 µM (active)

CN1CCSc2ccc(C(=O)Nc3cc(F)ccc3F)cc21
IC50 [3]: > 67.5 µM (inactive)
AC50 (HeLa): 44.2 µM (active)
IC50 (HEK293): > 67.5 µM (inactive)

C[C@@H]1CN([C@H](C)CO)C(=O)c2cc(NC(=O)Nc3ccc(F)cc3)ccc2O[C@@H](C)CCCCO[C@H]1CN(C)S(=O)(=O)c1ccc(Cl)cc1
AC50 (Paired box protein Pax-8): 6.11 µM (active)
AC50 [2]: 5.81 µM (active)
AC50 [30]: > 70 µM (inactive)
